How the values were obtained:
[1] = test system: wheat plants (Triticum aestivum L. cv CDC Teal and mutant lines); assay: Whole-plant reaction to imazamox spray (resistant / intermediate / susceptible rating); type: in vivo
Text: Approximately 40,000 seeds of Triticum aestivum L. cv CDC Teal (Hughes and Hucl, 1993 Can. J. Plant Sci. 73:193-197) were mutagenized using modified procedures described by Washington and Sears (1970). Seeds were pre-soaked in distilled water for four hours, followed by treatment with 0.3% EMS for six hours. Seeds were rinsed continually with tap water for seven hours and allowed to dry for approximately four hours before being planted in the field. The M1 plants were selfed and the seed was harvested in bulk. Approximately 2×10^6 M2 plants were grown in the field the following year and were sprayed at the two leaf stage with imazamox at a rate of 40 g ai ha^−1 in a spray volume of 100 L ha^−1. Merge 0.05% (v/v) adjuvant was added to the spray solution. Six lines resistant to imazamox were selected and designated as lines 1A, 9A, 10A, 11A, 15A, and 16A. The M3 and M4 generations were grown in a walk-in growth chamber and plants resistant to imazamox were selected using rates of 20 g ai ha^−1. Resistant plants were selected in the M5 generation after application of 40 g ai ha^−1 in the field. M5 seed was homozygous for the trait, as progeny testing detected no segregation for resistance to imazamox.
To determine the genetic control of resistance to imazamox in the six wheat lines, reciprocal crosses between the six homozygous resistant M6 lines and CDC Teal (susceptible to imazamox) were made. Randomly selected F1 plants from each of the crosses were backcrossed to CDC Teal to form backcross (BC)F1 populations. To investigate allelism, all possible inter-crosses between the six mutants and SWP965001 (Grandin/3*Fidel—FS-4) were made. SWP965001 is a spring wheat line that is homozygous for the FS-4 allele. Parental genotypes were grown in a walk-in growth chamber with a 16 hour photoperiod and a 24° C. day and 16° C. night temperature regime. Spikes that were ¾ emerged from the boot were emasculated and then pollinated 2-3 days after the emasculation date. Randomly selected F2 plants from all segregating crosses were selfed to produce F2:3 families. Parental, F1, BCF1, F2 plants and F2:3 families were tested for reaction to imazamox. All experiments were conducted in a walk-in growth chamber with a 16 hour photoperiod and a 23° C. day and 16° C. night temperature regime. A completely random design was used for all experiments. In experiments involving F2:3 families, effort was taken to randomize both within and among families. The F1 and F2 populations were screened in the same experiment along with parental genotypes and CDC Teal as controls. Both the BCF1 and F2:3 populations were screened in two separate experiments along with appropriate parental genotypes as controls.
Herbicide treatments were applied to plants growing in 8×16 cell flats at the two leaf stage using a traveling cable sprayer calibrated to spray 100 L ha^−1. Imazamox was applied to plants at a rate of 20 g ai ha^−1 using an 8001 EVS nozzle at a pressure of 275 kPa. Merge surfactant (0.05% v/v) was added to the herbicide solution prior to application. Fifteen days after herbicide application, plants were rated based on parental reactions and were considered as resistant, intermediate, or susceptible. […] For Mendelian analysis of the segregating populations, plants were scored into resistant and susceptible categories and tested for goodness of fit to various 1 gene, 2 gene and 3 gene models using chi-square analysis. […]

[2] = test system: wheat genotypes (BW755, Teal15A, 15A/11A); assay: Injury of wheat genotypes treated with 10× or 30× rate of imazamox; type: in vivo, Triticum aestivum
Text: FIG. 7 is a table comparing injury sustained by three wheat genotypes when treated with either a 10× or 30× rate of imazamox. The 1× rate is 20 g/ha. BW755 contains the FS4 mutant gene. 15A/11A is a bulk of selfed progeny from the cross of Teal11A and Teal15A. The population was not yet homozygous at all three non-allelic loci.
The presence of two IMI nucleic acids in Teal 15A provides increased tolerance to imidazolinone herbicides compared to a line such as BW755 carrying only one IMI nucleic acid. This increased tolerance is reflected both in less injury at higher herbicide rates, but in having more uninhibited AHAS enzyme activity.
Combining three non-allelic genes each conferring tolerance to imidazolinone herbicides results in greater tolerance than with only two non-allelic genes (FIG. 7).

[3] = test system: Nicotiana tabacum plants; settings: plants homozygous for both mutations versus plants homozygous for each single mutation; cited from earlier work

SMILES	reaction to imazamox ([1]; CDC Teal (wild type parent))	survival after application of imazamox ([1]; F1 plants of reciprocal crosses between resistant lines and CDC Teal, 20 g ai ha^−1)	reaction to imazamox ([1]; F1 plants of resistant lines crossed with CDC Teal, except 15A×Teal, 20 g ai ha^−1)	reaction to imazamox ([1]; fourteen F1 plants from 15A×Teal cross, 20 g ai ha^−1)	reaction to imazamox ([1]; selected lines 1A, 9A, 10A, 11A, 15A, 16A, M2 plants in field, two leaf stage, 40 g ai ha^−1)	plant injury ([2]; 10× rate (200 g/ha), one gene plants (BW755, FS4))	plant injury ([2]; 10× rate (200 g/ha), two gene plants (Teal 15A))	plant injury ([2]; 30× rate (600 g/ha), homozygous population of Teal15A)	plant injury ([2]; 30× rate (600 g/ha), still-segregating selfed population of Teal15A crossed with Teal11A)	resistance to foliar applications relative to single mutation plants [3]
COCc1cnc(C2=NC(C)(C(C)C)C(=O)N2)c(C(=O)O)c1 (stereo not shown) [imazamox]	susceptible	survived	intermediate reaction	resistant	resistant	all treated one gene plants were injured	no two gene plants were injured	all plants of the homozygous population of Teal15A sustained injury	over half of plants sustained no injury	–
COc1nc(C)nc(NC(=O)NS(=O)(=O)c2ccccc2Cl)n1 [chlorsulfuron]	–	–	–	–	–	–	–	–	–	five-fold more resistant
